{"source": "paper PMC10793205", "about": "“Differential transmetallation of complexes of the anti-cancer thiosemicarbazone, Dp4e4mT: effects on anti-proliferative efficacy, redox activity, oxy-myoglobin and oxy-hemoglobin oxidation” (Chemical Science, 2023)", "key": {"[1]": {"tested_on": "human tumor xenografts", "conditions": "cited from earlier work; for efficacy against a lung tumor xenograft: in vivo after oral administration"}, "[2]": {"conditions": "mice, cited from earlier work"}, "[3]": {"test": "Transmetallation kinetics with Cu(OAc)2 in aqueous solution pH 7.4 / pH 5 (UV-vis)", "format": "physicochemical", "conditions": "for Observed pseudo first order rate constant kobs, Cu(OAc)2 in water pH 5 (only or first step): 10-fold excess of Cu(OAc)2, water pH 5, 25 °C; for Observed pseudo first order rate constant kobs, Cu(OAc)2 in water pH 7.4: 10-fold excess of Cu(OAc)2, water pH 7.4, 25 °C", "method": "Transmetallation studies were also conducted using UV-vis spectroscopy in aqueous solutions at pH 7.4 (phosphate buffer; 100 mM) and pH 5 (acetate buffer; 150 mM) to simulate physiological conditions, as thiosemicarbazones of this class transverse the cytosol (pH 7.4) to target lysosomes (pH 5), where transmetallation occurs.[25,26,28] Studies in aqueous solution were important to compare the results performed in DMSO above so as to interpret the biological studies and particularly the redox assays below where the same pH values were employed.\nTransmetallation of the complexes of Dp4e4mT with Cu(OAc)2 in water was possible as it is soluble in aqueous solution at pH 7.4 and 5, while FeCl3 precipitates under these conditions and cannot be assessed. […] The UV-vis spectra of all complexes in water (ca. 10 μM solutions) are compared in Fig. S17 ^† and mirror the spectra in DMSO (see Experimental section). The spectra of [Fe(Dp4e4mT)2]^+, [Co(Dp4e4mT)2]^+, and [Pd(Dp4e4mT)Cl] are similar, and display an asymmetric maximum around 393 nm with a prominent shoulder (∼450 nm). The [Ni(Dp4e4mT)2] spectrum is similarly asymmetric, although the peak intensities are reversed relative to the Fe(III), Co(III), and Pd(II) spectra (Fig. S17 ^†). […] The spectrum of [Zn(Dp4e4mT)2] is unique in this group, with a symmetrical peak at ∼400 nm.\nTable S2. Observed pseudo first order rate constants (k obs, s−1) for reactions of each Dp4e4mT complex with a 10-fold excess of Cu(OAc) 2 or FeCl 3 in DMSO or water (pH 7.4 or 5.0) at 25 °C. […]\n[Co(Dp4e4mT)2]+ No reaction No reaction No reaction No reaction […]\na Reaction could not be deciphered by UV-Vis spectroscopy; bchlorido ligand hydrolysis"}}, "note": "Like-named read-outs stand apart in the source and are kept apart here."}
{"smiles": "CCN(C)C(=S)NN=C(c1ccccn1)c1ccccn1", "note": "[Dp4e4mT, di-2-pyridylketone-4-ethyl-4-methyl-3-thiosemicarbazone]", "values": [{"measurement": "efficacy against a lung tumor xenograft", "setting": "[1]", "result": "potent efficacy against a lung tumor xenograft"}, {"measurement": "cardiac fibrosis", "setting": "[2]", "result": "did not induce cardiac fibrosis in mice"}]}
{"smiles": "CN(C)C(=S)NN=C(c1ccccn1)c1ccccn1", "note": "[Dp44mT, di-2-pyridylketone 4,4-dimethyl-3-thiosemicarbazone, reference compound]", "values": [{"measurement": "inhibition of human tumor xenografts", "setting": "[1]; nude mice, 0.4 mg per kg per day", "result": "selectively inhibited a variety of human tumor xenografts in nude mice"}, {"measurement": "cardiac fibrosis", "setting": "[2]; intravenous, intensive non-optimal doses", "result": "demonstrated cardiac fibrosis"}]}
{"smiles": "CN(C(=S)NN=C(c1ccccn1)c1ccccn1)C1CCCCC1", "note": "[DpC, di-2-pyridylketone 4-cyclohexyl-4-methyl-3-thiosemicarbazone, reference compound]", "values": [{"measurement": "efficacy against a lung tumor xenograft", "setting": "[1]", "result": "potent efficacy against a lung tumor xenograft"}, {"measurement": "cardiac fibrosis", "setting": "[2]", "result": "did not induce cardiac fibrosis in mice"}]}
{"smiles": "CCN(C)C([S-])=NN=C(c1ccccn1)c1ccccn1.CCN(C)C([S-])=NN=C(c1ccccn1)c1ccccn1.[Co+3]", "note": "[[Co(Dp4e4mT)2]^+]", "values": [{"measurement": "Observed pseudo first order rate constant kobs, Cu(OAc)2 in water pH 5 (only or first step)", "setting": "[3]", "result": "No reaction"}, {"measurement": "Observed pseudo first order rate constant kobs, Cu(OAc)2 in water pH 7.4", "setting": "[3]", "result": "No reaction"}]}
{"smiles": "CCN(C)C([S-])=NN=C(c1ccccn1)c1ccccn1.CCN(C)C([S-])=NN=C(c1ccccn1)c1ccccn1.[Fe+3]", "note": "[[Fe(Dp4e4mT)2]^+]", "values": [{"measurement": "kobs, decay of the 500 nm shoulder after Cu(OAc)2", "setting": "[3]; aqueous, pH 7.4 and 5.0", "result": 0.00073, "unit": "s⁻¹"}, {"measurement": "t½, decay of the 500 nm shoulder after Cu(OAc)2", "setting": "[3]; aqueous, pH 7.4 and 5.0", "result": "~15", "unit": "min"}]}
{"smiles": "CCN(C)C([S-])=NN=C(c1ccccn1)c1ccccn1.CCN(C)C([S-])=NN=C(c1ccccn1)c1ccccn1.[Ga+3]", "note": "[[Ga(Dp4e4mT)2]^+]", "values": [{"measurement": "Observed pseudo first order rate constant kobs, Cu(OAc)2 in water pH 5 (only or first step)", "setting": "[3]", "result": "> 0.1", "unit": "s−1"}, {"measurement": "Observed pseudo first order rate constant kobs, Cu(OAc)2 in water pH 7.4", "setting": "[3]", "result": "> 0.1", "unit": "s−1"}, {"measurement": "t½, spectral change without added Cu(OAc)2", "setting": "[3]; aqueous pH 7.4, no Cu(OAc)2", "result": "~0.5", "unit": "min"}, {"measurement": "kobs, spectral change without added Cu(OAc)2", "setting": "[3]; aqueous pH 7.4, no Cu(OAc)2, λmax shift ∼415 nm to 400 nm", "result": 0.022, "unit": "s⁻¹"}]}
{"smiles": "CCN(C)C([S-])=NN=C(c1ccccn1)c1ccccn1.CCN(C)C([S-])=NN=C(c1ccccn1)c1ccccn1.[Ni+2]", "note": "[[Ni(Dp4e4mT)2]]", "values": [{"measurement": "Observed pseudo first order rate constant kobs, Cu(OAc)2 in water pH 7.4", "setting": "[3]", "result": "No reaction"}, {"measurement": "t½, faster step with Cu(OAc)2 at pH 5", "setting": "[3]; aqueous pH 5, first of two consecutive first order reactions", "result": "~4", "unit": "min"}]}
{"smiles": "CCN(C)C([S-])=NN=C(c1ccccn1)c1ccccn1.CCN(C)C([S-])=NN=C(c1ccccn1)c1ccccn1.[Zn+2]", "note": "[[Zn(Dp4e4mT)2]]", "values": [{"measurement": "Observed pseudo first order rate constant kobs, Cu(OAc)2 in water pH 5 (only or first step)", "setting": "[3]", "result": "> 0.1", "unit": "s−1"}, {"measurement": "Observed pseudo first order rate constant kobs, Cu(OAc)2 in water pH 7.4", "setting": "[3]", "result": "> 0.1", "unit": "s−1"}]}
